Assay results as given in US20250084039A1, “4-SUBSTITUTED AMINOISOQUINOLINE DERIVATIVES” (Purdue Research Foundation, priority 2016, published 2025).
Like-named read-outs stand apart in the source and are kept apart here.

Assays:
MOLM14 = test: IC50 determination (proliferation assay, CellTiter-Blue); format: cell-based; conditions: for IC50: Homo sapiens, MOLM-14
How it was run: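 MOLM14 and MV4-11 cells seeded about 18 h before compound addition (DMSO-diluted), then 72 h exposure.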

ROS/ROS1 = ROS/ROS1 (Homo sapiens (Human), UniProt P08922); test: Reaction Biology HotSpot kinase assay; format: biochemical; conditions: 500 nM compound; read-out: Percentage kinase inhibition ROS/ROS1
How it was run: (§1)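 Read-out is percent remaining kinase activity relative to a DMSO vehicle reaction. Compound was tested once at 500 nM and preincubated 20 min with kinase and substrate, then the reaction ran 2 h at room temperature with 100 μM final ATP spiked with [γ-33P]ATP before spotting onto P81 ion-exchange paper.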

KDR/VEGFR2 = KDR/VEGFR2 (Homo sapiens (Human), UniProt P35968); test: Reaction Biology HotSpot kinase assay; format: biochemical; conditions: 500 nM compound; read-out: Percentage kinase inhibition KDR/VEGFR2
How it was run: as §1

EPHB2 = EPHB2 (Homo sapiens (Human), UniProt P29323); test: Reaction Biology HotSpot kinase assay; format: biochemical; conditions: 500 nM compound; read-out: Percentage kinase inhibition EPHB2
How it was run: as §1

FGFR1 = FGFR1 (Homo sapiens (Human), UniProt P11362); test: Reaction Biology HotSpot kinase assay; format: biochemical; conditions: 500 nM compound; read-out: Percentage kinase inhibition FGFR1
How it was run: (§2)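 HotSpot 33P transfer format. Enzyme, substrate and 500 nM test compound sit together for 20 min, then labelled and unlabelled ATP totalling 100 μM are added and phosphorylation proceeds for 2 h at room temperature. Products are captured on P81 cellulose paper, and activity is expressed relative to DMSO.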

YES/YES1 = YES/YES1 (Homo sapiens (Human), UniProt P07947); test: Reaction Biology HotSpot kinase assay; format: biochemical; conditions: 500 nM compound; read-out: Percentage kinase inhibition YES/YES1
How it was run: as §1

c-MER = c-MER (Homo sapiens (Human), UniProt Q12866); test: Reaction Biology HotSpot kinase assay; format: biochemical; conditions: 500 nM compound; read-out: Percentage kinase inhibition c-MER
How it was run: as §1

ALK = ALK (Homo sapiens (Human), UniProt Q9UM73); test: Reaction Biology HotSpot kinase assay; format: biochemical; conditions: 500 nM compound; read-out: Percentage kinase inhibition ALK
How it was run: as §1

c-Met = c-Met (Homo sapiens (Human), UniProt P08581); test: Reaction Biology HotSpot kinase assay; format: biochemical; conditions: 500 nM compound; read-out: Percentage kinase inhibition c-Met
How it was run: as §1

EGFR = EGFR (Homo sapiens (Human), UniProt P00533); test: Reaction Biology HotSpot kinase assay; format: biochemical; conditions: 500 nM compound; read-out: Percentage kinase inhibition EGFR
How it was run: as §1

PKCa = PKCa (Homo sapiens (Human), UniProt P17252); test: Reaction Biology HotSpot kinase assay; format: biochemical; conditions: 500 nM compound; read-out: Percentage kinase inhibition PKCa
How it was run: as §1

TRKB = TRKB (Homo sapiens (Human), UniProt Q16620); test: Reaction Biology HotSpot kinase assay; format: biochemical; conditions: 500 nM compound; read-out: Percentage kinase inhibition TRKB
How it was run: as §1

FLT3 = FLT3 (Homo sapiens (Human), UniProt P36888); test: Reaction Biology HotSpot kinase assay; format: biochemical; conditions: for inhibition at 0.5 µM: read-out: % inhibition of FLT3 activity
How it was run: as §2

BRAF = BRAF (Homo sapiens (Human), UniProt P15056); test: Reaction Biology HotSpot kinase assay; format: biochemical; conditions: 500 nM compound; read-out: Percentage kinase inhibition BRAF
How it was run: (§3)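 Each compound was tested at 500 nM, with 33P incorporation from ATP (100 μM final, including [γ-33P]ATP) measured by P81 paper capture after a 2 h room-temperature reaction.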

PDGFRa = PDGFRa (Homo sapiens (Human), UniProt P16234); test: Reaction Biology HotSpot kinase assay; format: biochemical; conditions: 500 nM compound; read-out: Percentage kinase inhibition PDGFRa
How it was run: as §1

AKT1 = AKT1 (Homo sapiens (Human), UniProt P31749); test: Reaction Biology HotSpot kinase assay; format: biochemical; conditions: 500 nM compound; read-out: Percentage kinase inhibition AKT1
How it was run: as §2

FLT1/VEGFR1 = FLT1/VEGFR1 (Homo sapiens (Human), UniProt P17948); test: Reaction Biology HotSpot kinase assay; format: biochemical; conditions: 500 nM compound; read-out: Percentage kinase inhibition FLT1/VEGFR1
How it was run: as §1

FGR = FGR (Homo sapiens (Human), UniProt P09769); test: Reaction Biology HotSpot kinase assay; format: biochemical; conditions: 500 nM compound; read-out: Percentage kinase inhibition FGR
How it was run: as §1

AXL = AXL (Homo sapiens (Human), UniProt P30530); test: Reaction Biology HotSpot kinase assay; format: biochemical; conditions: 500 nM compound; read-out: Percentage kinase inhibition AXL
How it was run: as §3

BTK = BTK (Homo sapiens (Human), UniProt Q06187); test: Reaction Biology HotSpot kinase assay; format: biochemical; conditions: 500 nM compound; read-out: Percentage kinase inhibition BTK
How it was run: as §1

ERBB2/HER2 = ERBB2/HER2 (Homo sapiens (Human), UniProt P04626); test: Reaction Biology HotSpot kinase assay; format: biochemical; conditions: 500 nM compound; read-out: Percentage kinase inhibition ERBB2/HER2
How it was run: as §1

EPHA5 = EPHA5 (Homo sapiens (Human), UniProt P54756); test: Reaction Biology HotSpot kinase assay; format: biochemical; conditions: 500 nM compound; read-out: Percentage kinase inhibition EPHA5
How it was run: as §1

TIE2/TEK = TIE2/TEK (Homo sapiens (Human), UniProt Q02763); test: Reaction Biology HotSpot kinase assay; format: biochemical; conditions: 500 nM compound; read-out: Percentage kinase inhibition TIE2/TEK
How it was run: as §1

FLT4/VEGFR3 = FLT4/VEGFR3 (Homo sapiens (Human), UniProt P35916); test: Reaction Biology HotSpot kinase assay; format: biochemical; conditions: 500 nM compound; read-out: Percentage kinase inhibition FLT4/VEGFR3
How it was run: as §1

EGFR, sequence (P00533 25-1210): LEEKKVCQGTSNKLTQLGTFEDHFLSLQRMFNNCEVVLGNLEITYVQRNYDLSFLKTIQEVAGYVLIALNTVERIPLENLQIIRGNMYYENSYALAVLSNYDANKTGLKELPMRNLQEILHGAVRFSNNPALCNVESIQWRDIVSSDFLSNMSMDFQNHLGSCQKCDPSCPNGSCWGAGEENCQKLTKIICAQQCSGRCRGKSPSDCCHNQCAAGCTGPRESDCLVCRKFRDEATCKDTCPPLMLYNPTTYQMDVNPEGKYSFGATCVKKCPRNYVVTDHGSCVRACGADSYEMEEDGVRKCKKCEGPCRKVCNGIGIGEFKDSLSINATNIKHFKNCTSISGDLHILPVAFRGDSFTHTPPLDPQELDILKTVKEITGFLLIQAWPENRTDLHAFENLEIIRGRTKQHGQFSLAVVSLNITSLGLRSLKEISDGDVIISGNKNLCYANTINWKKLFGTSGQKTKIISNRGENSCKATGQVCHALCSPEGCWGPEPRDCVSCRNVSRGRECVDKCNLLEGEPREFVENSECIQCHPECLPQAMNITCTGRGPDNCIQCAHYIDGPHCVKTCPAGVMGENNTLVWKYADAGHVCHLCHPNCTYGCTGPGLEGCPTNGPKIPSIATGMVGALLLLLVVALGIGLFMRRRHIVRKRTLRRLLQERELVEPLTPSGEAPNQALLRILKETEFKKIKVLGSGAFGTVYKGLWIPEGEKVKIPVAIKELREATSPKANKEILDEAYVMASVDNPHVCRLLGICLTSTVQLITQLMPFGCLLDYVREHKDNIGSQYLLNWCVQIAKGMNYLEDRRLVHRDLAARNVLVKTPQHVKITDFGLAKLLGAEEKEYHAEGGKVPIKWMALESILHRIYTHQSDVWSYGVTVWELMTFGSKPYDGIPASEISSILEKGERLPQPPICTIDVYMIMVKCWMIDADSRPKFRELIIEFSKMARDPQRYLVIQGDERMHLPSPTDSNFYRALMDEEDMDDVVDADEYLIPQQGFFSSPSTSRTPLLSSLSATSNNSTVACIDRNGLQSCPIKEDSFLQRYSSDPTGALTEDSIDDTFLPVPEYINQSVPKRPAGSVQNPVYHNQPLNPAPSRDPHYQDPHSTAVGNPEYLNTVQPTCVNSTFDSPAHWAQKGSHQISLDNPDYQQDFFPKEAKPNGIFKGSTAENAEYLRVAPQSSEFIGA
EPHB2, sequence (P29323 19-1055): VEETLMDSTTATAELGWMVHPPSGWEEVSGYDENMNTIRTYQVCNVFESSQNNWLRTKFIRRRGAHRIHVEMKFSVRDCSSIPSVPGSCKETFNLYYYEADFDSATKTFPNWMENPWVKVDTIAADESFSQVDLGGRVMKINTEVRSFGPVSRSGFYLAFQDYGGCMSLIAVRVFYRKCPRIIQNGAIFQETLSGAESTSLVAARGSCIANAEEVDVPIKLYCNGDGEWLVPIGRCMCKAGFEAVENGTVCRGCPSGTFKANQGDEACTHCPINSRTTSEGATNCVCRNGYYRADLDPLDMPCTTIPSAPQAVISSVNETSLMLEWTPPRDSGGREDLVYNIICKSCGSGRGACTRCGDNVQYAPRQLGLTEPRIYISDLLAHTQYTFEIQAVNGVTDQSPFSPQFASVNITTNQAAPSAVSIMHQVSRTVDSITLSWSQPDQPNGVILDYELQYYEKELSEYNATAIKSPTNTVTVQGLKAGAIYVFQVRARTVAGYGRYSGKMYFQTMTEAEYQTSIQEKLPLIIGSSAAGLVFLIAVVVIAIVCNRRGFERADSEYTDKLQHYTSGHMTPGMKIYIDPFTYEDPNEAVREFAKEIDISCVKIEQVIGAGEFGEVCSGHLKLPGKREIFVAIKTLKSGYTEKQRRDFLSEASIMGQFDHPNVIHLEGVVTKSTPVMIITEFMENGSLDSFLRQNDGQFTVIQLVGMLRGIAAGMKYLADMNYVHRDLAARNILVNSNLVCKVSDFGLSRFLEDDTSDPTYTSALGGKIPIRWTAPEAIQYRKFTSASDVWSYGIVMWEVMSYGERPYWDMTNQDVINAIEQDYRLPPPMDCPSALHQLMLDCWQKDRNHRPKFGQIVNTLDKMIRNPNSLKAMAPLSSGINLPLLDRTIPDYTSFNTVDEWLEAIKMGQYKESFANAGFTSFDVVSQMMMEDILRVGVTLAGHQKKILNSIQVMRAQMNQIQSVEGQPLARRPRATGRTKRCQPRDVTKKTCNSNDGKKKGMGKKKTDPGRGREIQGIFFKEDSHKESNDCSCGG
c-Met, sequence (P08581 25-1390): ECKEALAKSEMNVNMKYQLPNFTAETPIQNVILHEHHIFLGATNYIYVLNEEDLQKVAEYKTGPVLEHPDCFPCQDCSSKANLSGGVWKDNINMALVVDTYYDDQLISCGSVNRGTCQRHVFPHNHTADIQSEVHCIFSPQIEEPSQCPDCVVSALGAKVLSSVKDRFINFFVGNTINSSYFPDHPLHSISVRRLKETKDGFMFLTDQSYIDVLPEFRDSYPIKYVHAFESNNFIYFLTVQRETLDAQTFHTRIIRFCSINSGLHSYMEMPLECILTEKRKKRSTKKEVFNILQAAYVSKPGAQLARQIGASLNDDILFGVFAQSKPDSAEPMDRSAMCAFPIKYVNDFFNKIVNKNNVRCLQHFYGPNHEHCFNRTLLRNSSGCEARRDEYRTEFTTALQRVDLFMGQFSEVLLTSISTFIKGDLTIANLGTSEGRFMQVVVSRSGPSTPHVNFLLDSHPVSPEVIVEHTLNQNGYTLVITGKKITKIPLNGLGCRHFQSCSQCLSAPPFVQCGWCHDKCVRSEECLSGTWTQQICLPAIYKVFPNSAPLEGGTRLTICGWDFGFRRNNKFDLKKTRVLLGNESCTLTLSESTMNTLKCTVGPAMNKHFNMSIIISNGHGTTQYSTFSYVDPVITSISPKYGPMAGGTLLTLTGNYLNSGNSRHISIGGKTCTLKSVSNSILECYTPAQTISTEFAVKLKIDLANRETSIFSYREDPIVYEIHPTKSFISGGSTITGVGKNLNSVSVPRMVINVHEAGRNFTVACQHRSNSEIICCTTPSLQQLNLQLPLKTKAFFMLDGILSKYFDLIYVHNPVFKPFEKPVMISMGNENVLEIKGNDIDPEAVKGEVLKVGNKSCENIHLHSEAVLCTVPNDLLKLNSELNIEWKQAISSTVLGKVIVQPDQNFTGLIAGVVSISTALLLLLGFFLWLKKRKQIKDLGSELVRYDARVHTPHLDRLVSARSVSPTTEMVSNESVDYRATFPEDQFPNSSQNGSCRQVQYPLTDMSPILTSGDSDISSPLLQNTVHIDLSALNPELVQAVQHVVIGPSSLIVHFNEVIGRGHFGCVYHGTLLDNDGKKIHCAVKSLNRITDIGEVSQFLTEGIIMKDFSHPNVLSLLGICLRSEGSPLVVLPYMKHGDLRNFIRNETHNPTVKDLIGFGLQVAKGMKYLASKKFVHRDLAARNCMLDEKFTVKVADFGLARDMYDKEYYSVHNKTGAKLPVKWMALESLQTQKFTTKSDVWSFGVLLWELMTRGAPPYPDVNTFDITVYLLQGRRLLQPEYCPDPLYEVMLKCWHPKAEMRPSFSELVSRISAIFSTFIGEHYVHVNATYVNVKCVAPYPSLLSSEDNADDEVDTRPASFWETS
TRKB, sequence (Q16620 32-822): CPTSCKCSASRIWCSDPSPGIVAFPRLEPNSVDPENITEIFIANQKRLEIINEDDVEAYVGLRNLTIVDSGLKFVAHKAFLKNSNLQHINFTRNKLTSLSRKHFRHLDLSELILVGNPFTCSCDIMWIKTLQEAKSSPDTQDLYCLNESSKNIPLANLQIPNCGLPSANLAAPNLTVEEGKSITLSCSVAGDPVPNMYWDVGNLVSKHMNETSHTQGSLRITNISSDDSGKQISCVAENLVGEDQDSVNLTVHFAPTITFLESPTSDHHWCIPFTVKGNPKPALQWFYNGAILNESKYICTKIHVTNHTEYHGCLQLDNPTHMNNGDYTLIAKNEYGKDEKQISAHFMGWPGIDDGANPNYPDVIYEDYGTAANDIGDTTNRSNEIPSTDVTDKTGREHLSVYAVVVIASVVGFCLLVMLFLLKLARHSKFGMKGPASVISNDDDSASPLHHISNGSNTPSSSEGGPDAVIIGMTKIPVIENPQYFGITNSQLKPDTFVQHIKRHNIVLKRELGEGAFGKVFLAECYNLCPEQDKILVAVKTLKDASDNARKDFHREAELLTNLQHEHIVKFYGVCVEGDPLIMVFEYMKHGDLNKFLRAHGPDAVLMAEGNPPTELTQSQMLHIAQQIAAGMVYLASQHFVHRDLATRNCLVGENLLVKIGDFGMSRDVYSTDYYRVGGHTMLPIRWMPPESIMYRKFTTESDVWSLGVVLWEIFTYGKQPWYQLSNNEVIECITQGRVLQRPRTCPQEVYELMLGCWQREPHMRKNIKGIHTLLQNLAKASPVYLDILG

Structure (SMILES) | IC50 (MOLM14) [nM] | inhibition at 0.5 µM (ROS/ROS1) [%] | inhibition at 0.5 µM (KDR/VEGFR2) [%] | inhibition at 0.5 µM (EPHB2) [%] | inhibition at 0.5 µM (FGFR1) [%] | inhibition at 0.5 µM (YES/YES1) [%] | inhibition at 0.5 µM (c-MER) [%] | inhibition at 0.5 µM (ALK) [%] | inhibition at 0.5 µM (c-Met) [%] | inhibition at 0.5 µM (EGFR) [%] | inhibition at 0.5 µM (PKCa) [%] | inhibition at 0.5 µM (TRKB) [%] | inhibition at 0.5 µM (BRAF) [%] | inhibition at 0.5 µM (PDGFRa) [%] | inhibition at 0.5 µM (AKT1) [%] | inhibition at 0.5 µM (FLT1/VEGFR1) [%] | inhibition at 0.5 µM (FGR) [%] | inhibition at 0.5 µM (AXL) [%] | inhibition at 0.5 µM (BTK) [%] | inhibition at 0.5 µM (ERBB2/HER2) [%] | also measured
Cc1ccc(C(=O)Nc2ccc(CN3CCN(C)CC3)c(C(F)(F)F)c2)cc1C#Cc1cnc(N)c2ncccc12 [HSN356, 3-((8-amino-1,7-naphthyridin-5-yl)ethynyl)-4-methyl-N-(4-((4-methylpiperazin-1-yl)methyl)-3-(trifluoromethyl)phenyl)benzamide] | 0.62 ± 0.02 | 0 | 97 | 100 | 96 | 100 | 0 | 0 | 15 | 59 | 0 | 75 | 100 | 92 | 0 | 94 | 99 | 4 | 65 | 64 | proliferation inhibition in words, MOLM-14 (MOLM14): potent proliferation inhibitors; % inhibition of FLT3 activity (FLT3): 99%; inhibition at 0.5 µM (FLT3): 98%; inhibition at 0.5 µM (EPHA5): 96%; inhibition at 0.5 µM (TIE2/TEK): 100%; inhibition at 0.5 µM (FLT4/VEGFR3): 94%
COc1cc2nc(N)nc(C#Cc3cc(C(=O)Nc4ccc(CN5CCN(C)CC5)c(C(F)(F)F)c4)ccc3C)c2cc1OC [HSN325] | 456 ± 15 | 0 | 90 | 3 | 58 | 41 | 0 | 2 | 15 | 0 | 5 | 0 | 38 | 53 | 0 | 42 | 39 | 3 | 4 | 4 | % inhibition of FLT3 activity (FLT3; 500 nM compound): 34%; inhibition at 0.5 µM (FLT3; 500 nM compound): 33%; inhibition at 0.5 µM (EPHA5): 30%; inhibition at 0.5 µM (TIE2/TEK): 47%; inhibition at 0.5 µM (FLT4/VEGFR3): 42%
Cc1ccc(C(=O)Nc2ccc(CN3CCN(C)CC3)c(C(F)(F)F)c2)cc1C#Cc1cnc(N)c2ccccc12 [HSN334, 3-((1-aminoisoquinolin-4-yl)ethynyl)-4-methyl-N-(4-((4-methylpiperazin-1-yl)methyl)-3-(trifluoromethyl)phenyl)benzamide] | 1.61 ± 0.02 | 0 | 94 | 98 | 96 | 100 | 0 | 0 | 14 | 61 | 0 | 41 | 96 | 86 | 0 | 79 | 100 | 5 | 46 | 31 | proliferation inhibition in words, MOLM-14 (MOLM14): potent proliferation inhibitors; % inhibition of FLT3 activity (FLT3): 100%; inhibition at 0.5 µM (FLT3): 99%; inhibition at 0.5 µM (EPHA5): 97%; inhibition at 0.5 µM (TIE2/TEK): 99%; inhibition at 0.5 µM (FLT4/VEGFR3): 79%
Cc1ccc(C(=O)Nc2ccc(CN3CCN(C)CC3)c(C(F)(F)F)c2)cc1C#Cc1cc(N)nc2ccccc12 [HSN285] | 415 ± 6.9 | 0 | 15 | 3 | 0 | 0 | 3 | 1 | 23 | 0 | 6 | 0 | 64 | 30 | 0 | 3 | 0 | 0 | 0 | 0 | inhibition at 0.5 µM (FLT3; 500 nM compound): 28%; inhibition at 0.5 µM (EPHA5): 0%; inhibition at 0.5 µM (TIE2/TEK): 0%; inhibition at 0.5 µM (FLT4/VEGFR3): 6%
